The values below come from PubChem BioAssay AID179 (DTP/NCI, 2004).

The assay concerns CEM cells HIV-1 protection, formazan growth assay. Nature of the assay: NCI AIDS Antiviral Assay. The note with it: for pIC50: measured here: growth of uninfected CEM cells. The method in brief:
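Protection of CEM cells against HIV-1 measured as cell growth via soluble formazan read-out, with five concentrations tested on both infected and uninfected cells; failure to protect may reflect toxicity.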

pEC50, pIC50: −log10 of the molar value. Where “and” joins values, the source holds several entries; their conditions need not be identical. Equal values may be shown once. Calls of active or inactive are those of the source.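 Rule for the calls: active = compounds giving half or more protection of infected cells from virus-caused growth loss, again on retest; inactive = the rest.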 Where a SMILES comes first, the peptide text is derived from it. The star is where a group is joined. Cbz = O=C(OCc1ccccc1)*

In general, pEC50 refers to the EC50 on a negative log10 scale, so that one unit is a factor of ten. What is called pIC50 is the IC50 on a negative log10 scale, so that one unit is a factor of ten. Low readings indicate a high IC50, high ones a low IC50. As to `Cc1cc(N(CCC#N)CCC#N)ccc1N=Nc1cc(Cl)ccc1Cl`, the pEC50 was under 5.43 and the pIC50 was 5.70.
With `O=[N+]([O-])c1ccc(-c2cn3nc(-c4ccccc4)c(-c4ccccc4)nc3n2)cc1`, the pEC50 was under 4.88 and the pIC50 is under 4.88.
On to `O=c1[nH]ncc2c1nnn2C1CCC(CO)O1` (stereo not drawn), for which the pEC50 is under 3.70 and the pIC50 is under 3.70.
Turning to `O=C(Nc1ccccc1)C(c1ccccc1)N(Nc1ccccc1Cl)c1ccccc1Cl` (stereo not drawn), the pEC50 is under 3.70 and the pIC50 was 4.47.
Consider `CN(C)CCC(=O)c1ccccc1`, for which the result was inactive.
For the molecule `OCC1(CO)COC2(CCCCC2)N1`, the pEC50 was under 2.91 and the pIC50 is under 2.91.
For the molecule `CCOC(=O)c1sc2c(c1OC(=O)c1ccc(Cl)cc1Cl)c(=O)n(-c1ccccc1)c(=S)n2-c1ccccc1`, the pEC50 was under 3.70 and the pIC50 was 7.06.
For the molecule `COC1=C(C)C(=O)C2=C(C1=O)C1C3CC4=C(C(=O)C(OC)=C(C)C4=O)C(CNC(=O)C(C)=O)N3C(C#N)C(C2)N1C` (stereo not drawn), the pEC50 was under 5.92 and the pIC50 was 7.61.
For `Cc1c(-c2ccccc2)sc(/N=C/c2cc(Br)cc(Br)c2O)c1C#N`, the pEC50 was under 4.70 and the negative logarithm of the IC50 (pIC50) was 6.15.
Taken in the same sequence, the figures for `O=C(O)c1ccc(C2SCc3nc4ccccc4n32)cc1` (stereo not drawn) were under 3.70 and under 3.70.
Taken in the same sequence, the figures for `c1ccc(C2NC(c3ccccc3)N3C(c4ccccc4)N23)cc1` (stereo not drawn) were under 4.78 and under 4.78.
With `CCOC(=O)CCC(NC(=O)C(CC(=O)OC)NC(=O)OCc1ccccc1)C(=O)NC(CC(=O)OC)C(=O)NC(CCC(=O)OCC)C(=O)NC(CC(=O)OC)C(=O)NC(CCC(=O)OCC)C(=O)NC(CC(=O)OCC)C(=O)OCC` (stereo not drawn) (Cbz-D(OMe)E(OEt)D(OMe)E(OEt)D(OMe)E(OEt)D(OEt)-OEt; configuration not given here), the pEC50 is under 3.70 and the pIC50 is under 3.70.
As for `COc1ccc(/C=C2/SC(c3ccccc3)N(NC(=O)CCCCCCCCC(=O)NN3C(=O)/C(=C\c4ccc(OC)c(OC)c4)SC3c3ccccc3)C2=O)cc1OC` (stereo not drawn), the pEC50 was under 3.70 and the negative-log IC50 (pIC50) was 4.04.
Taken in the same sequence, the figures for `O=C(CCCCCCCCC(=O)N1C(=O)CC(=O)N(c2ccc(Cl)cc2)C1=S)N1C(=O)CC(=O)N(c2ccc(Cl)cc2)C1=S` were under 3.70 and 4.09.
For the molecule `O=C1Oc2ccccc2C(=O)/C1=C/N1C(=O)N/C(=C\c2ccccc2O)C1=O`, the pEC50 was under 3.70 and the pIC50 is 3.91.
Turning to `Cc1cc(=O)c2c(=O)oc3c4ccccc4ccc3c2o1`, the pEC50 was under 3.70 and the pIC50 was 3.98.
The matching figures for `COC(=O)[C@@H]1C[C@@H]2c3ccccc3N(S(=O)(=O)c3ccccc3)[C@@H]2N1C(=O)OC`: under 3.70 and under 3.70.
As for `CC(=O)C1=C(N=[N+]=[N-])c2cccc3cccc(c23)C1=O`, the result was inactive.
As for `O=C1C=C(Nc2ccccc2)c2ccccc2C1=O`, the pEC50 is under 4.96 and the negative-log IC50 (pIC50) is under 4.96.
Turning to `CCN(C(=S)N[C@@H](Cc1ccccc1)C(=O)N[C@@H](CC(C)C)C(=O)OC)c1ccccc1`, the pEC50 was under 3.70 and the pIC50 is 4.59.
Taken in the same sequence, the figures for `N#Cc1c(N)c2c(c(-c3ccccc3)c1-c1ccccc1)C(=O)N(NC(=O)c1ccccc1)C2=O` were 4.12 and 3.99.
Regarding `Cc1nnc(Sc2nc(C#N)c(C#N)nc2Sc2nnc(C)s2)s1`, the pEC50 was under 3.70 and the pIC50 is 5.09.
The matching figures for `CC1=C2[C@@H](c3ccccc3)C3C=CC2(c2ccccc23)N(C(=O)Nc2cccc3ccccc23)C1=O` (stereo partly drawn): under 5.24 and under 5.24.
Taken in the same sequence, the figures for `Cc1cc(=O)oc2c(O)c(O)ccc12` were under 3.58 and 3.85.
Turning to `Cc1c(C(=O)C/C(=N\O)C(=O)Nc2cc(Cl)c(Cl)cc2Cl)[n+](=O)c2ccccc2n1[O-]`, the pEC50 was under 4.83 and the pIC50 is under 4.83.
Take `O=C(/C=C\c1ccccc1-c1ccccc1)c1ccccc1`: the pEC50 was under 3.70 and the pIC50 is under 3.70.
On to `O=C(NCc1ccccc1)c1n[nH][nH]c1=O`, for which the pEC50 was under 3.70 and the pIC50 was under 3.70.
As for `Cc1c(C2CCSc3ccccc3N2)sc2ccccc12` (stereo not drawn), the pEC50 is under 3.70 and the pIC50 was 3.83.
Turning to `CCOC(=O)N(c1ccccc1)N(CC)C(=O)/C(C)=N/Nc1ccc([N+](=O)[O-])cc1`, the result was inactive.
Turning to `COc1cc2c(cc1OC)C1c3ccccc3CCN1CCC2` (stereo not drawn), the pEC50 was under 3.70 and the negative logarithm of the IC50 (pIC50) is under 3.70.
Turning to `O=C(O)CCc1c2ccc(=O)c(O)c-2oc2c(O)c(O)ccc12`, the pEC50 was 4.07 and the pIC50 was 3.99.
Turning to `CCN(CCCl)CCNc1c2ccccc2nc2ccc(OC)cc12`, the result was inactive.
On to `C=C(CCC(C)C1CCC2C3=C(C(=O)CC21C)C1(C)CCC(=O)[C@@H](C)C1CC3=O)C(C)C(=O)O` (stereo partly drawn), for which the pEC50 was under 3.70 and the pIC50 is 4.33.
The matching figures for `O=C(CCc1nnc2s/c(=C\c3ccccc3[N+](=O)[O-])c(=O)n12)Nc1cc(Cl)c(Cl)cc1Cl`: under 5.70 and under 5.70.
For `S=C(Nc1ccc2c(c1)oc1ccccc12)c1cccnc1`, the pEC50 is 4.17 and the pIC50 was under 3.70.
As to `CC(CC(=O)O)C(N)C(=O)O` (stereo not drawn), the pEC50 is under 3.70 and the pIC50 is under 3.70.
For the molecule `COc1ccc(C(=O)/C=C/c2ccc(OCC#N)cc2)cc1OC`, the pEC50 was under 3.70 and the pIC50 was 5.48.
In the case of `O=[N+]([O-])c1cccc(SSc2cccc([N+](=O)[O-])c2)c1`, the pEC50 is < 3.70 and 4.69; the pIC50 was 5.34 and 4.46 and 5.20.
Regarding `CN=c1ssc(=S)n1C(C)C`, the pEC50 was under 3.70 and the negative-log IC50 (pIC50) was 4.79.
Regarding `Cc1cc2c3ccccc3n(C)c2c2c1C(=O)c1ccccc1C2=O`, the pEC50 was under 5.10 and the pIC50 is under 5.10.
Regarding `Cc1c(-c2c(C)c(=O)c3c(C(C)C)c(=O)c(=O)c(C=O)c-3c2=O)c(O)c2c(C=O)c(O)c(O)c(C(C)C)c2c1O`, the pEC50 is under 4.88 and the pIC50 was 5.15.
Take `CN(NC(=O)/C(=C\c1ccco1)NC(=O)c1ccccc1)c1cn[nH]c(=O)c1Cl`: the pEC50 was under 3.70 and the pIC50 was 4.41.
For the molecule `CC/C(=N\NS(=O)(=O)c1ccccc1)c1ccccc1`, the result was inactive.
For `CC(C)=Nn1cnc(C(=N)C#N)c1N`, the pEC50 is under 3.70 and the pIC50 is under 3.70.
In the case of `C=C(CN(C)C)C(=O)c1ccc(OC2OC(COC(C)=O)C(OC(C)=O)C(OC(C)=O)C2OC(C)=O)cc1` (stereo not drawn), the pEC50 is under 3.70 and the pIC50 is 5.49.
Taken in the same sequence, the figures for `Cc1nc2c(ccc3c(C)c(C)c(C)nc32)c(C)c1C` were under 4.70 and 6.01.
For the molecule `CCCCCCCCCCCCCCCCCCOCC(COP(=O)([O-])OCC[N+](C)(C)C)OC` (stereo not drawn), the pEC50 was under 4.99 and the pIC50 is 5.61.
Taken in the same sequence, the figures for `COC(=O)[C@]1(C)CCC[C@]2(C)C3CC4OOC3(C=C4C(C)(C)O)CCC21` (stereo partly drawn) were under 3.60 and 4.41.
Taken in the same sequence, the figures for `Cc1cc(NS(=O)(=O)c2ccc(Nc3c4ccccc4nc4c(C(=O)N5CCN(CCO)CC5)cccc34)cc2)no1` were under 4.42 and under 4.42.
Taken in the same sequence, the figures for `O=C(O)Cc1cc(=O)oc2cc(O)c(Cl)cc12` were under 3.15 and under 3.15.
For `COC(=O)c1ccccc1NC(=O)C(=O)Cc1nc2c3c(ccc2[nH]c1=O)C(=O)c1ccccc1C3=O`, the pEC50 is under 4.69 and the pIC50 was under 4.69.
Take `CC(=O)OC1CC2C(C)(C)C(=O)C=C[C@]2(C)C2CCC3(C)C(=CCC3[C@H](CO)C[C@H](O)C(=O)C(C)(C)O)[C@]12C` (stereo partly drawn): the pEC50 was under 4.32 and the pIC50 was 4.73.
For the molecule `Cc1cnc(SCCN(C)C)nc1-c1ccc(-c2nc(SCCN(C)C)ncc2C)s1`, the pEC50 is under 4.87 and the pIC50 is 4.90.
Taken in the same sequence, the figures for `COC(=O)C(=O)C(C(=O)C=C(C)C)C(=O)C(=O)Nc1nc2ccc([N+](=O)[O-])cc2s1` (stereo not drawn) were under 4.22 and under 4.22.
The matching figures for `COC(=O)C1=C2Nc3ccccc3C23CCN2CCC(=O)C[C@H](C1)[C@@H]23` (stereo partly drawn): under 3.97 and under 3.97.
Regarding `COc1ccc(NCC/C=C\[Si](C)(C)C)cc1`, the outcome was inactive.
As for `O=C(NCc1cccnc1)C1COc2cc(-c3cc(=O)c4ccccc4o3)ccc2O1` (stereo not drawn), the outcome was inactive.
For `O=S(=O)(OCCCCOS(=O)(=O)c1ccc(Cl)c(Cl)c1)c1ccc(Cl)c(Cl)c1`, the result was inactive.
As to `Cc1ccc(S(=O)(=O)N2CCCSCCSCCCSCC2)cc1`, the pEC50 is under 4.75 and the pIC50 was under 4.75.
For the molecule `CC(/C=C/C1OC(=O)C=CC1C)=C\C(C)C/C=C/C(C)=C/C(C)C(=O)C(C)C(O)C(C)C/C(C)=C/C(=O)O` (stereo not drawn), the pEC50 is under 7.70 and the pIC50 was 8.20.
As to `O=C(CC(c1ccccc1)c1ccccc1)NCCCCN1CCCCCCC1`, the pEC50 was under 3.70 and the pIC50 is 4.89.
For the molecule `CCOC(=O)c1nc2c3c(ncn2n1)Oc1c(c(-c2ccccc2)nn1-c1ccccc1)C3c1ccc(Cl)cc1` (stereo not drawn), the pEC50 is under 3.70 and the pIC50 is under 3.70.
As to `[N-]=[N+]=C1C(=O)NCN=C1c1ccccc1`, the pEC50 was under 3.47 and the pIC50 is under 3.47.
On to `Nc1nc2c(ncn2C2CCC(CO)OC2)c(=O)[nH]1` (stereo not drawn), for which the pEC50 was 3.84 and the negative logarithm of the IC50 (pIC50) was under 3.70.
The matching figures for `Cc1ccc(C(=O)c2ccccc2C(=O)O)c(C)c1`: under 3.70 and under 3.70.
As to `O=c1[nH]nc(NNc2ccccc2)c2nnn(C3CCCCC3)c12`, the pEC50 was under 3.70 and the pIC50 was 4.90.
The matching figures for `Nc1nc(Cl)c2ncn(C3OC(CO)CC3F)c2n1` (stereo not drawn): under 4.31 and under 4.31.
Taken in the same sequence, the figures for `CC1CC(=O)Nc2ccccc2N1C(=O)CN1CCC(CCCCN(C)C)CC1` (stereo not drawn) were under 3.60 and under 3.60.
